Experimental data reported in US20240148749A1 (priority 2021, published 2024).

System: CLP mice
Assay: Survival after cecal ligation and puncture (CLP) model of sepsis
Format: in vivo, mouse
Experimental: A log-rank (Mantel-Cox) p value for trend was calculated.
We used peritonitis induced by CLP as a model of sepsis (Rittirsch et al., 2009). Briefly, animals were anesthetized with ketamine (Imalgene® 1000 100 mg/kg, Merial, France) and Xylazine (Rompun® 2% 20 mg/kg, Bayer, Germany) prior to surgery. After laparotomy, caecum was ligatured at the distal third with a 4.0 suture and the distal part was perforated twice with a 21 Gauge needle.
For use it is dissolved following the guidance provided by the manufacturer.
Clinical score was assessed 6, 12 and 24 hours and 21 days after CLP using a modified SmithKline Beecham, Harwell, Imperial College and Royal London Hospital phenotype assessment (SHIRPA) (Rogers et al., 1997) of the maximum score of fourteen. Weight, temperature and locomotor activity using an open field box were measured at the same time points. We determined survival rate twice a day for 21 days after CLP. The symptoms included in the a modified SmithKline Beecham, Harwell, Imperial College and Royal London Hospital phenotype assessment (SHIRPA) are tremors, periorbital exudates, piloerection, lethargy, vocalisation, positional passivity, no escapement to threat, long transfer arousal and diarrhoea. Each condition was scored from 0 to 2.
Experimental protocols were conducted in accordance with the French and European regulations on Animal Welfare and with Public Health Service recommendations. The experiments were performed on C57BL/6JRj mice (male and female) purchased from Janvier Laboratory. Mice were housed in cages in groups of 7, in a temperature (22±1.5° C.) and humidity-controlled environment, with a 12 h light/dark cycle. All animals used in the study were between 10 and 12 weeks old. Sample-size estimates for animal experiments were based on prior animal-modelling studies used in the Unit for the investigation of caecal ligation and puncture (CLP).
At the end, two groups were compared: CLP-Placebo, CLP-BMX-010. We determined survival rate twice a day for 4 days after CLP.”

## CC[n+]1ccccc1-c1c2nc(c(-c3cccc[n+]3CC)c3ccc([nH]3)c(-c3cccc[n+]3CC)c3nc(c(-c4cccc[n+]4CC)c4ccc1[nH]4)C=C3)C=C2.[Mn+3] [BMX-010, manganese(III) 5,10,15,20-tetrakis(N-ethylpyridinium-2-yl) porphyrin]
CLP experiment, FIG. 10
  survival of mice hours post-CLP (probability of survival over time) versus placebo: outperforms the placebo
CLP mice, 2 mg/kg intra peritoneal every 12 hours during 48 hours (4 injections), N=12 mice C57BL6/group
  survival at 4 days post-CLP versus placebo: more that doubles survival
